Test results taken from ChEMBL document CHEMBL1201861, “Genomics of Drug Sensitity in Cancer screening data, Wellcome Trust Sanger Institute”.

Experiments:
Assay in all cases: cells
Details in all cases: Homo sapiens
[1] = system: SK-N-AS; format: functional, cell-based;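 note: growth inhibition of human SK-N-AS cells, measured with a cell viability assay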
Description: SANGER: Inhibition of human SK-N-AS cell growth in a cell viability assay.

[2] = system: A-431; format: functional, cell-based;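 note: growth inhibition of A-431 cells, determined with a cell viability read-out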
Description: SANGER: Inhibition of human A431 cell growth in a cell viability assay.

[3] = system: MeWo; format: functional, cell-based;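 note: growth inhibition of MeWo cells, determined by a cell viability readout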
Description: SANGER: Inhibition of human Mewo cell growth in a cell viability assay.

[4] = system: CAL-72; format: functional, cell-based;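 note: cell viability assay measuring inhibition of proliferation in the CAL-72 cell line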
Description: SANGER: Inhibition of human CAL-72 cell growth in a cell viability assay.

[5] = system: PANC-08-13; format: functional, cell-based;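 note: cell growth inhibition, measured with a cell viability assay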
Description: SANGER: Inhibition of human PANC-08-13 cell growth in a cell viability assay.

[6] = system: BHT-101; format: functional, cell-based
Description: SANGER: Inhibition of human BHT-101 cell growth in a cell viability assay.

[7] = system: NCI-H28; format: functional, cell-based;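 note: growth inhibition of human NCI-H28 cells, read out as cell viability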
Description: SANGER: Inhibition of human NCI-H28 cell growth in a cell viability assay.

[8] = system: MG-63; format: functional, cell-based;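 note: growth inhibition of human MG-63 cells, read out with a cell viability assay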
Description: SANGER: Inhibition of human MG-63 cell growth in a cell viability assay.

[9] = system: Huh-7; format: functional, cell-based;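 note: HuH-7 cell growth inhibition, read out with a cell viability assay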
Description: SANGER: Inhibition of human HuH-7 cell growth in a cell viability assay.

[10] = system: SCC-25; format: functional, cell-based;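 note: growth inhibition of SCC-25 cells, measured with a cell viability assay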
Description: SANGER: Inhibition of human SCC-25 cell growth in a cell viability assay.

[11] = system: HT55; format: functional, cell-based;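 note: cell viability readout measuring growth inhibition of human HT55 cells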
Description: SANGER: Inhibition of human HT55 cell growth in a cell viability assay.

[12] = system: RCM-1; format: functional, cell-based;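 note: growth inhibition of the RCM-1 line, determined with a cell viability readout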
Description: SANGER: Inhibition of human RCM-1 cell growth in a cell viability assay.

[13] = system: U2OS; format: functional, cell-based, U-2-OS;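 note: growth inhibition of human U-2-OS cells, determined with a cell viability assay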
Description: SANGER: Inhibition of human U-2-OS cell growth in a cell viability assay.

[14] = system: P12-Ichikawa; format: functional, cell-based
[15] = system: Panc1005; format: functional, cell-based;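 note: growth inhibition of human PANC-10-05 cells, measured by a cell viability assay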
Description: SANGER: Inhibition of human PANC-10-05 cell growth in a cell viability assay.

[16] = system: EW-22; format: functional, cell-based;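 note: growth inhibition of the EW-22 cell line, measured with a cell viability readout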
Description: SANGER: Inhibition of human EW-22 cell growth in a cell viability assay.

[17] = system: NCI-H2347; format: functional, cell-based;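 note: growth inhibition of the cell line, read out with a cell viability assay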
Description: SANGER: Inhibition of human NCI-H2347 cell growth in a cell viability assay.

[18] = system: 8305C; format: functional, cell-based
Description: SANGER: Inhibition of human 8305C cell growth in a cell viability assay.

[19] = system: SAOS-2; format: functional, cell-based;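 note: growth inhibition of human Saos-2 cells determined by a cell viability assay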
Description: SANGER: Inhibition of human Saos-2 cell growth in a cell viability assay.

[20] = system: 647-V; format: functional, cell-based;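 note: growth inhibition of 647-V cells, read out with a cell viability assay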
Description: SANGER: Inhibition of human 647-V cell growth in a cell viability assay.

[21] = system: MHH-ES-1; format: functional, cell-based;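 note: cell growth inhibition measured by a cell viability assay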
Description: SANGER: Inhibition of human MHH-ES-1 cell growth in a cell viability assay.

[22] = system: NCI-H1623; format: functional, cell-based;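 note: cell viability assay used as the read-out for growth inhibition of NCI-H1623 cells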
Description: SANGER: Inhibition of human NCI-H1623 cell growth in a cell viability assay.

[23] = system: MIA PaCa-2; format: functional, cell-based;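 note: growth inhibition of MIA PaCa-2 cells, read out with a cell viability assay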
Description: SANGER: Inhibition of human MIA-PaCa-2 cell growth in a cell viability assay.

[24] = system: G-401; format: functional, cell-based
Description: SANGER: Inhibition of human G-401 cell growth in a cell viability assay.

[25] = system: 5637; format: functional, cell-based
Description: SANGER: Inhibition of human 5637 cell growth in a cell viability assay.

[26] = system: ChaGo-K-1; format: functional, cell-based;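 note: growth inhibition of ChaGo-K-1 cells, read out with a cell viability assay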
Description: SANGER: Inhibition of human ChaGo-K-1 cell growth in a cell viability assay.

[27] = system: RO82-W-1; format: functional, cell-based;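 note: growth inhibition of human RO82-W-1 cells, measured with a cell viability assay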
Description: SANGER: Inhibition of human RO82-W-1 cell growth in a cell viability assay.

[28] = system: EFM-19; format: functional, cell-based;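 note: growth inhibition of human EFM-19 cells, measured in a cell viability assay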
Description: SANGER: Inhibition of human EFM-19 cell growth in a cell viability assay.

[29] = system: EGI-1; format: functional, cell-based;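 note: cell viability readout used to gauge growth inhibition of EGI-1 cells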
Description: SANGER: Inhibition of human EGI-1 cell growth in a cell viability assay.

[30] = system: SW948; format: functional, cell-based;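 note: growth inhibition of SW948 cells, read out with a cell viability assay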
Description: SANGER: Inhibition of human SW948 cell growth in a cell viability assay.

[31] = system: HSC-3; format: functional, cell-based
Description: SANGER: Inhibition of human HSC-3 cell growth in a cell viability assay.

[32] = system: OVCAR-8; format: functional, cell-based;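 note: growth inhibition of human OVCAR-8 cells, read out by a cell viability assay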
Description: SANGER: Inhibition of human OVCAR-8 cell growth in a cell viability assay.

[33] = system: WM-115; format: functional, cell-based
Description: SANGER: Inhibition of human WM-115 cell growth in a cell viability assay.

[34] = system: HPAF-II; format: functional, cell-based;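 note: growth inhibition of HPAF-II cells, read out with a cell viability assay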
Description: SANGER: Inhibition of human HPAF-II cell growth in a cell viability assay.

[35] = system: 769-P; format: functional, cell-based
Description: SANGER: Inhibition of human 769-P cell growth in a cell viability assay.

[36] = system: NCI-H460; format: functional, cell-based;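 note: cell viability assay scoring growth inhibition of human NCI-H460 cells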
Description: SANGER: Inhibition of human NCI-H460 cell growth in a cell viability assay.

[37] = system: SK-MEL-30; format: functional, cell-based;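 note: growth inhibition of SK-MEL-30 cells, determined with a cell viability assay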
Description: SANGER: Inhibition of human SK-MEL-30 cell growth in a cell viability assay.

[38] = system: SF-295; format: functional, cell-based;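 note: growth inhibition of SF-295 cells, read out with a cell viability assay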
Description: SANGER: Inhibition of human SF295 cell growth in a cell viability assay.

[39] = system: OE33; format: functional, cell-based;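 note: growth inhibition of human OE33 cells, measured by a cell viability assay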
Description: SANGER: Inhibition of human OE33 cell growth in a cell viability assay.

[40] = system: DK-MG; format: functional, cell-based;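 note: growth inhibition of DK-MG cells, read out with a cell viability assay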
Description: SANGER: Inhibition of human DK-MG cell growth in a cell viability assay.

[41] = system: UMC-11; format: functional, cell-based;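 note: growth inhibition of UMC-11 cells, read out with a cell viability assay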
Description: SANGER: Inhibition of human UMC-11 cell growth in a cell viability assay.

[42] = system: BCPAP; format: functional, cell-based;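 note: growth inhibition of BCPAP cells, read out in a cell viability assay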
Description: SANGER: Inhibition of human BCPAP cell growth in a cell viability assay.

[43] = system: NCI-H441; format: functional, cell-based;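 note: growth inhibition of NCI-H441 cells, read out with a cell viability assay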
Description: SANGER: Inhibition of human NCI-H441 cell growth in a cell viability assay.

[44] = system: MKN-28; format: functional, cell-based;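 note: cell viability assay read-out, IC50 reflects suppression of growth of human MKN-28 cells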
Description: SANGER: Inhibition of human MKN28 cell growth in a cell viability assay.

**Q.** `NC1(c2ccc(-c3nc4ccn5c(=O)[nH]nc5c4cc3-c3ccccc3)cc2)CCC1` [MK-2206] was tested. Which IC50 [1] did it give?
**A.** > 4 µM

**Q.** And the IC50 [2]?
**A.** > 4 µM

**Q.** And the IC50 [3]?
**A.** > 4 µM

**Q.** What about the IC50 [4] of the same molecule?
**A.** > 4 µM

**Q.** And the IC50 [5]?
**A.** > 4 µM

**Q.** And the IC50 [6]?
**A.** 0.53 µM

**Q.** And the IC50 [7]?
**A.** > 4 µM

**Q.** What about the IC50 [8] of the same molecule?
**A.** > 4 µM

**Q.** What about the IC50 [9] of the same molecule?
**A.** 3.09 µM

**Q.** And the IC50 [10]?
**A.** > 4 µM

**Q.** What about the IC50 [11] of the same molecule?
**A.** > 4 µM

**Q.** What about the IC50 [12] of the same molecule?
**A.** > 4 µM

**Q.** What about the IC50 [13] of the same molecule?
**A.** > 4 µM

**Q.** What about the IC50 [14] of the same molecule?
**A.** 0.116 µM

**Q.** And the IC50 [15]?
**A.** > 4 µM

**Q.** And the IC50 [16]?
**A.** > 4 µM

**Q.** And the IC50 [17]?
**A.** > 4 µM

**Q.** What about the IC50 [18] of the same molecule?
**A.** > 4 µM

**Q.** What about the IC50 [19] of the same molecule?
**A.** > 4 µM

**Q.** What about the IC50 [20] of the same molecule?
**A.** > 4 µM

**Q.** What about the IC50 [21] of the same molecule?
**A.** > 4 µM

**Q.** What about the IC50 [22] of the same molecule?
**A.** 3.41 µM

**Q.** What about the IC50 [23] of the same molecule?
**A.** > 4 µM

**Q.** And the IC50 [24]?
**A.** 1.3 µM

**Q.** What about the IC50 [25] of the same molecule?
**A.** > 4 µM

**Q.** And the IC50 [26]?
**A.** > 4 µM

**Q.** And the IC50 [27]?
**A.** > 4 µM

**Q.** And the IC50 [28]?
**A.** 0.44 µM

**Q.** What about the IC50 [29] of the same molecule?
**A.** > 4 µM

**Q.** And the IC50 [30]?
**A.** > 4 µM

**Q.** What about the IC50 [31] of the same molecule?
**A.** > 4 µM

**Q.** And the IC50 [32]?
**A.** > 4 µM

**Q.** What about the IC50 [33] of the same molecule?
**A.** > 4 µM

**Q.** And the IC50 [34]?
**A.** > 4 µM

**Q.** And the IC50 [35]?
**A.** > 4 µM

**Q.** What about the IC50 [36] of the same molecule?
**A.** > 4 µM

**Q.** What about the IC50 [37] of the same molecule?
**A.** > 4 µM

**Q.** What about the IC50 [38] of the same molecule?
**A.** > 4 µM

**Q.** What about the IC50 [39] of the same molecule?
**A.** > 4 µM

**Q.** What about the IC50 [40] of the same molecule?
**A.** > 4 µM

**Q.** What about the IC50 [41] of the same molecule?
**A.** > 4 µM

**Q.** And the IC50 [42]?
**A.** > 4 µM

**Q.** And the IC50 [43]?
**A.** > 4 µM

**Q.** `CN(C)CCOc1ccc(-c2nc(-c3ccncc3)c(-c3ccc4c(c3)CC/C4=N\O)[nH]2)cc1` [SB590885] was tested. Which IC50 [1] did it give?
**A.** > 5 µM

**Q.** What about the IC50 [2] of the same molecule?
**A.** > 5 µM

**Q.** What about the IC50 [3] of the same molecule?
**A.** > 5 µM

**Q.** What about the IC50 [4] of the same molecule?
**A.** > 5 µM

**Q.** What about the IC50 [5] of the same molecule?
**A.** > 5 µM

**Q.** What about the IC50 [6] of the same molecule?
**A.** 1.63 µM

**Q.** And the IC50 [44]?
**A.** > 5 µM

**Q.** What about the IC50 [7] of the same molecule?
**A.** > 5 µM

**Q.** And the IC50 [8]?
**A.** > 5 µM

**Q.** And the IC50 [9]?
**A.** 3.67 µM

**Q.** What about the IC50 [10] of the same molecule?
**A.** > 5 µM

**Q.** What about the IC50 [11] of the same molecule?
**A.** > 5 µM

**Q.** And the IC50 [12]?
**A.** > 5 µM

**Q.** What about the IC50 [13] of the same molecule?
**A.** > 5 µM

**Q.** What about the IC50 [14] of the same molecule?
**A.** 3.44 µM

**Q.** What about the IC50 [15] of the same molecule?
**A.** > 5 µM

**Q.** What about the IC50 [16] of the same molecule?
**A.** > 5 µM

**Q.** What about the IC50 [17] of the same molecule?
**A.** > 5 µM

**Q.** And the IC50 [18]?
**A.** > 5 µM

**Q.** What about the IC50 [19] of the same molecule?
**A.** > 5 µM

**Q.** And the IC50 [20]?
**A.** > 5 µM

**Q.** What about the IC50 [21] of the same molecule?
**A.** > 5 µM

**Q.** What about the IC50 [22] of the same molecule?
**A.** > 5 µM

**Q.** And the IC50 [23]?
**A.** > 5 µM

**Q.** And the IC50 [24]?
**A.** > 5 µM

**Q.** And the IC50 [25]?
**A.** > 5 µM

**Q.** What about the IC50 [26] of the same molecule?
**A.** > 5 µM

**Q.** What about the IC50 [27] of the same molecule?
**A.** > 5 µM

**Q.** And the IC50 [28]?
**A.** > 5 µM

**Q.** And the IC50 [29]?
**A.** > 5 µM

**Q.** What about the IC50 [30] of the same molecule?
**A.** > 5 µM

**Q.** And the IC50 [31]?
**A.** > 5 µM

**Q.** And the IC50 [32]?
**A.** > 5 µM

**Q.** What about the IC50 [33] of the same molecule?
**A.** 0.85 µM

**Q.** What about the IC50 [34] of the same molecule?
**A.** > 5 µM

**Q.** What about the IC50 [35] of the same molecule?
**A.** > 5 µM

**Q.** And the IC50 [36]?
**A.** > 5 µM

**Q.** What about the IC50 [37] of the same molecule?
**A.** 1.55 µM

**Q.** And the IC50 [38]?
**A.** > 5 µM

**Q.** And the IC50 [39]?
**A.** > 5 µM

**Q.** What about the IC50 [40] of the same molecule?
**A.** > 5 µM

**Q.** What about the IC50 [41] of the same molecule?
**A.** > 5 µM

**Q.** What about the IC50 [42] of the same molecule?
**A.** > 5 µM

**Q.** And the IC50 [43]?
**A.** > 5 µM
